In patent EP0316212B1 (priority 1987, dated 1989):

Legend:
HIV1 = HIV1 infection of human lymphocytes preincubated with antibodies or NP derivatives, reverse transcriptase in supernatants; format: cell-based; details: for activité reverse transcriptase (surnageants de culture): dérivés NP, concentration not given
Description: (§1) La technique de culture et de titrage de la reverse-transcriptase du HIV est rappelée ci-après : Des lymphocytes humains, préalablement activés par la PHA (phytohémagglutinine) sont incubés dans un milieu nutritif (RPMI 1640 + sérum de veau foetal + antibiotiques + β-mercaptoéthanol 10⁻⁵M + 2»g/ml polybrene + sérum anti-interféron 1/2000 + IL2 10%). Après centrifugation, le culot cellulaire est mis en présence du HIV1 (10.000 cpm/10⁶ cellules) pendant 1 heure à 37°. Après lavage et centrifugation, les cellules sont resuspendues dans du milieu nutritif. Les surnageants de culture cellulaire sont suivis pendant plusieurs jours pour leur activité reverse transcriptase. Ils sont centrifugés 7 minutes à 95000 tours et le culot est lysé par du Triton® 0,1% (produit Touzart et Matignon). Un mélange réactionnel est ajouté (Tris, DTT (dithiothreitol), MgCl₂, KCl, PolyA, Oligo dT, ³HTTP, H₂O) et après 1 heure d'incubation à 37°C, la réaction est arrêtée avec du pyrophosphate de sodium et de l'acide nucléique de levure est ajouté pour aider la précipitation. De l'acide trichloracétique (TCA) est ajouté et la solution est laissée 15 minutes à 4°C. Après filtration sous vide avec des filtres millipores 0.45 »m et plusieurs lavages avec du TCA (0.5%), on procède au rinçage à l'éthanol, au sèchage en étuve 37° et enfin au comptage.
Les lymphocytes humains, préalablement activés par la PHA, sont incubés en présence des AcN, des anticorps anti-NP et des dérivés NP (DNP-glycine, DNP-lysine) pendant une nuit à 37°C. Le lendemain, le culot cellulaire est mis en présence du HIV1 pendant 1 heure à 37°C au bain-marie et les cellules sont resuspendues dans du milieu nutritif en présence des produits à tester. Les surnageants de culture sont testés pour l'activité reverse transcriptase pendant 3 semaines.

[1] = target: reverse transcriptase du HIV1 (Human immunodeficiency virus type 1 group M subtype B, UniProt P04585); assay: Reverse transcriptase activity of HIV1 incubated with NP derivatives, tested immediately; format: biochemical; details: témoin virus 11924
Description: as §1
Le HIV1 est incubé 1 heure à 37° en présence d'AcN (D23, 621, N5-12), d'anticorps anti-NP (TNP11) ou en présence des dérivés NP (DNP-glycine et DNP-lysine). L'activité reverse transcriptase du HIV1 est testée immédiatement (cas des dérivés DNP-glycine et DNP-lysine). Alternativement, des lymphocytes humains sont infectés par le HIV1 préincubé avec les produits à tester, et la culture cellulaire est observée pendant 3 semaines par titrage de la reverse transcriptase. Durant cette période les cultures des lymphocytes humains ne contiennent pas d'anticorps ni d'antigène.

N[C@@H](CCCCNc1ccc([N+](=O)[O-])cc1[N+](=O)[O-])C(=O)O [DNP-lysine, DNP-Lysine]
activité reverse transcriptase (surnageants de culture) (HIV1; 3 jours après l'infection, témoin virus 562): 936
activité reverse transcriptase (surnageants de culture) (HIV1; 6 jours après l'infection, témoin virus 1274): 958
activité reverse transcriptase (surnageants de culture) (HIV1; 10 jours après l'infection, témoin virus 94474): 1102
activité reverse transcriptase (surnageants de culture) (HIV1; 13 jours après l'infection, témoin virus 63944): 1466
activité reverse transcriptase (surnageants de culture) (HIV1; 18 jours après l'infection, témoin virus 73368): 958
activité reverse transcriptase (surnageants de culture) (HIV1; 20 jours après l'infection, témoin virus 26840): 1268
activité reverse transcriptase / infectivité virale par rapport au témoin virus (result in words) (HIV1; lymphocytes incubés avec les produits): peuvent conduire à une inhibition totale de l'infectivité virale
Activité reverse transcriptase ([1]; 10^-3M): 4652
Activité reverse transcriptase ([1]; 10^-6M): 3932
Activité reverse transcriptase ([1]; 10^-7M): 7240
Activité reverse transcriptase ([1]; 10^-9M): 9262
